Reference: patent US8969516B2, “Method of hydrolysis of peptide bond” (priority 2006, dated 2015)

Test: MALDI-TOF screening of Ni^2+ dependent hydrolysis in a combinatorial peptide library
Assay type: physicochemical
Conditions: CH3CO-Gly-Ala-Ser-X-His-Z-Lys-Phe-Leu-NH2 library, Ni^2+ 2 mM, pH 8.2, 10 mM Tris, score=24/tm
Outline: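 MALDI-TOF read-out: appearance of Ser/Thr-X-His-Z-Lys-Phe-Leu-NH2 product signals, plus loss of substrate signals, checked by eye at 2, 4, 6, 8 h. Conditions: 1 mM peptide mixture, 2 mM Ni2+, 10 mM Tris pH 8.2, 37 or 45 °C.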

Row | Substance | hydrolysis score from MALDI-TOF screening (37° C.) | hydrolysis score from MALDI-TOF screening (45° C.)
1 | Ac-GASTHWKFL-NH2 [STHW] | 4 (a score of 4 for detection at 6 hours) | 6 (a score of 6 for detection at 4 hours)
2 | Ac-GASTHYKFL-NH2 [STHY] | 0 (a score of 0 if no trace of the product of hydrolysis was seen after 8 hours of incubation) | 3 (a score of 3 for detection at 8 hours)
3 | Ac-GASVHAKFL-NH2 [SVHA] | 0 (a score of 0 if no trace of the product of hydrolysis was seen after 8 hours of incubation) | 0 (a score of 0 if no trace of the product of hydrolysis was seen after 8 hours of incubation)
4 | Ac-GASVHDKFL-NH2 [SVHD] | 0 (a score of 0 if no trace of the product of hydrolysis was seen after 8 hours of incubation) | 0 (a score of 0 if no trace of the product of hydrolysis was seen after 8 hours of incubation)
5 | Ac-GASVHEKFL-NH2 [SVHE] | 0 (a score of 0 if no trace of the product of hydrolysis was seen after 8 hours of incubation) | 0 (a score of 0 if no trace of the product of hydrolysis was seen after 8 hours of incubation)
6 | Ac-GASVHFKFL-NH2 [SVHF] | 0 (a score of 0 if no trace of the product of hydrolysis was seen after 8 hours of incubation) | 3 (a score of 3 for detection at 8 hours)
7 | Ac-GASVHGKFL-NH2 [SVHG] | 0 (a score of 0 if no trace of the product of hydrolysis was seen after 8 hours of incubation) | 0 (a score of 0 if no trace of the product of hydrolysis was seen after 8 hours of incubation)
8 | Ac-GASVHHKFL-NH2 [SVHH] | 3 (a score of 3 for detection at 8 hours) | 3 (a score of 3 for detection at 8 hours)
9 | Ac-GASVHIKFL-NH2 [SVHI] | 3 (a score of 3 for detection at 8 hours) | 3 (a score of 3 for detection at 8 hours)
10 | Ac-GASVHKKFL-NH2 [SVHK] | 3 (a score of 3 for detection at 8 hours) | 4 (a score of 4 for detection at 6 hours)
11 | Ac-GASVHLKFL-NH2 [SVHL] | 3 (a score of 3 for detection at 8 hours) | 3 (a score of 3 for detection at 8 hours)
12 | Ac-GASVHMKFL-NH2 [SVHM] | 0 (a score of 0 if no trace of the product of hydrolysis was seen after 8 hours of incubation) | 0 (a score of 0 if no trace of the product of hydrolysis was seen after 8 hours of incubation)
13 | Ac-GASVHNKFL-NH2 [SVHN] | 0 (a score of 0 if no trace of the product of hydrolysis was seen after 8 hours of incubation) | 0 (a score of 0 if no trace of the product of hydrolysis was seen after 8 hours of incubation)
14 | Ac-GASVHPKFL-NH2 [SVHP] | 0 (a score of 0 if no trace of the product of hydrolysis was seen after 8 hours of incubation) | 0 (a score of 0 if no trace of the product of hydrolysis was seen after 8 hours of incubation)
15 | Ac-GASVHQKFL-NH2 [SVHQ] | 0 (a score of 0 if no trace of the product of hydrolysis was seen after 8 hours of incubation) | 0 (a score of 0 if no trace of the product of hydrolysis was seen after 8 hours of incubation)
16 | Ac-GASVHRKFL-NH2 [SVHR] | 3 (a score of 3 for detection at 8 hours) | 3 (a score of 3 for detection at 8 hours)
17 | Ac-GASVHSKFL-NH2 [SVHS] | 0 (a score of 0 if no trace of the product of hydrolysis was seen after 8 hours of incubation) | 0 (a score of 0 if no trace of the product of hydrolysis was seen after 8 hours of incubation)
18 | Ac-GASVHTKFL-NH2 [SVHT] | 0 (a score of 0 if no trace of the product of hydrolysis was seen after 8 hours of incubation) | 0 (a score of 0 if no trace of the product of hydrolysis was seen after 8 hours of incubation)
19 | Ac-GASVHVKFL-NH2 [SVHV] | 0 (a score of 0 if no trace of the product of hydrolysis was seen after 8 hours of incubation) | 3 (a score of 3 for detection at 8 hours)

Row | Substance | hydrolysis score from MALDI-TOF screening (37° C.) | hydrolysis score from MALDI-TOF screening (45° C.)
20 | Ac-GASVHWKFL-NH2 [SVHW] | 4 (a score of 4 for detection at 6 hours) | 4 (a score of 4 for detection at 6 hours)
21 | Ac-GASVHYKFL-NH2 [SVHY] | 0 (a score of 0 if no trace of the product of hydrolysis was seen after 8 hours of incubation) | 3 (a score of 3 for detection at 8 hours)
22 | Ac-GASWHAKFL-NH2 [SWHA] | 0 (a score of 0 if no trace of the product of hydrolysis was seen after 8 hours of incubation) | 3 (a score of 3 for detection at 8 hours)
23 | Ac-GASWHDKFL-NH2 [SWHD] | 0 (a score of 0 if no trace of the product of hydrolysis was seen after 8 hours of incubation) | 0 (a score of 0 if no trace of the product of hydrolysis was seen after 8 hours of incubation)
24 | Ac-GASWHEKFL-NH2 [SWHE] | 0 (a score of 0 if no trace of the product of hydrolysis was seen after 8 hours of incubation) | 0 (a score of 0 if no trace of the product of hydrolysis was seen after 8 hours of incubation)
25 | Ac-GASWHFKFL-NH2 [SWHF] | 3 (a score of 3 for detection at 8 hours) | 4 (a score of 4 for detection at 6 hours)
26 | Ac-GASWHGKFL-NH2 [SWHG] | 0 (a score of 0 if no trace of the product of hydrolysis was seen after 8 hours of incubation) | 3 (a score of 3 for detection at 8 hours)
27 | Ac-GASWHHKFL-NH2 [SWHH] | 4 (a score of 4 for detection at 6 hours) | 3 (a score of 3 for detection at 8 hours)
28 | Ac-GASWHIKFL-NH2 [SWHI] | 6 (a score of 6 for detection at 4 hours) | 12 (a score of 12, if it was seen to be partially hydrolysed at 2 hours)
29 | Ac-GASWHKKFL-NH2 [SWHK] | 4 (a score of 4 for detection at 6 hours) | 12 (a score of 12, if it was seen to be partially hydrolysed at 2 hours)
30 | Ac-GASWHLKFL-NH2 [SWHL] | 6 (a score of 6 for detection at 4 hours) | 12 (a score of 12, if it was seen to be partially hydrolysed at 2 hours)
31 | Ac-GASWHMKFL-NH2 [SWHM] | 0 (a score of 0 if no trace of the product of hydrolysis was seen after 8 hours of incubation) | 3 (a score of 3 for detection at 8 hours)
32 | Ac-GASWHNKFL-NH2 [SWHN] | 0 (a score of 0 if no trace of the product of hydrolysis was seen after 8 hours of incubation) | 0 (a score of 0 if no trace of the product of hydrolysis was seen after 8 hours of incubation)
33 | Ac-GASWHPKFL-NH2 [SWHP] | 0 (a score of 0 if no trace of the product of hydrolysis was seen after 8 hours of incubation) | 0 (a score of 0 if no trace of the product of hydrolysis was seen after 8 hours of incubation)
34 | Ac-GASWHQKFL-NH2 [SWHQ] | 0 (a score of 0 if no trace of the product of hydrolysis was seen after 8 hours of incubation) | 0 (a score of 0 if no trace of the product of hydrolysis was seen after 8 hours of incubation)
35 | Ac-GASWHRKFL-NH2 [SWHR] | 3 (a score of 3 for detection at 8 hours) | 6 (a score of 6 for detection at 4 hours)
36 | Ac-GASWHSKFL-NH2 [SWHS] | 0 (a score of 0 if no trace of the product of hydrolysis was seen after 8 hours of incubation) | 0 (a score of 0 if no trace of the product of hydrolysis was seen after 8 hours of incubation)
37 | Ac-GASWHTKFL-NH2 [SWHT] | 0 (a score of 0 if no trace of the product of hydrolysis was seen after 8 hours of incubation) | 0 (a score of 0 if no trace of the product of hydrolysis was seen after 8 hours of incubation)
